Measured values as given in patent US10967078B2, “Radiolabelled mGluR2 PET ligands” (Janssen Pharmaceutica NV, priority 2014, dated 2021).

Target: T1, mGluR2 (Mus musculus, UniProt Q14BI2)
T1 construct: horizontal sections of mGluR2 KO and WT mouse brain and of normal female Wistar rat brain; from tissue; host or cells: mouse brain sections (WT and mGluR2 KO), 20 µm
Assay: In vitro autoradiography binding on mGluR2 KO and WT mouse brain sections
Protocol: In vitro autoradiography studies were performed on horizontal sections of mGluR2 KO and WT mouse brain and of normal female Wistar rat brain (20 μm). The sections were preincubated in 50 mM Tris-HCl (MgCl2 2 mM, CaCl2 2 mM; pH 7.0) for 10 min (two times) at room temperature and dried. Next, the brain sections were incubated with tracer [^11C]-2, [^11C]-5, [^11C]-4, [^11C]-1 or [^18F]-3 diluted in the same Tris-HCl buffer as used for the preincubation additionally containing 0.1% BSA or with this tracer solution in the presence of 10 μM Co. No. 2 or Co. No. 1. The mouse brain sections were incubated with 17 kBq of carbon-11 labeled tracer and 1.7 kBq of fluorine-18 labeled tracer. For the rat brain sections this was 44 kBq of carbon-11 labeled tracer and 0.44 kBq of fluorine-18 labeled tracer. After 30 min of incubation, the brain sections were washed three times for 5 min in ice-cold Tris-HCl 50 mM ((MgCl2 2 mM, CaCl2 2 mM; pH 7.0+0.1% BSA buffer). After a quick dip in purified ice-cold water, the slides were dried. Autoradiograms were obtained by exposing the slides overnight to a high-performance phosphor storage screen (super-resolution screen; Perkin Elmer, Waltham, USA). The screens were read using a Cyclone Plus system (Perkin Elmer) and analysed using Optiquant software (Perkin Elmer). The radioactivity concentration in the autoradiograms was expressed in digital light units (DLU)/mm^2.
To obtain additional information on the specificity of the tracer binding to mGluR2, in vitro autoradiography binding studies were performed on mGluR2 KO and WT mouse brain sections and on normal rat brain sections in presence or absence of a high concentration of mGluR2 NAM compounds (Co. No. 1 or Co. No. 2).

[1] = WT mouse cortex, block with 10 μM Co. No. 1
[2] = WT mouse striatum, block with 10 μM Co. No. 1

T1 sequence (Q14BI2 19-872): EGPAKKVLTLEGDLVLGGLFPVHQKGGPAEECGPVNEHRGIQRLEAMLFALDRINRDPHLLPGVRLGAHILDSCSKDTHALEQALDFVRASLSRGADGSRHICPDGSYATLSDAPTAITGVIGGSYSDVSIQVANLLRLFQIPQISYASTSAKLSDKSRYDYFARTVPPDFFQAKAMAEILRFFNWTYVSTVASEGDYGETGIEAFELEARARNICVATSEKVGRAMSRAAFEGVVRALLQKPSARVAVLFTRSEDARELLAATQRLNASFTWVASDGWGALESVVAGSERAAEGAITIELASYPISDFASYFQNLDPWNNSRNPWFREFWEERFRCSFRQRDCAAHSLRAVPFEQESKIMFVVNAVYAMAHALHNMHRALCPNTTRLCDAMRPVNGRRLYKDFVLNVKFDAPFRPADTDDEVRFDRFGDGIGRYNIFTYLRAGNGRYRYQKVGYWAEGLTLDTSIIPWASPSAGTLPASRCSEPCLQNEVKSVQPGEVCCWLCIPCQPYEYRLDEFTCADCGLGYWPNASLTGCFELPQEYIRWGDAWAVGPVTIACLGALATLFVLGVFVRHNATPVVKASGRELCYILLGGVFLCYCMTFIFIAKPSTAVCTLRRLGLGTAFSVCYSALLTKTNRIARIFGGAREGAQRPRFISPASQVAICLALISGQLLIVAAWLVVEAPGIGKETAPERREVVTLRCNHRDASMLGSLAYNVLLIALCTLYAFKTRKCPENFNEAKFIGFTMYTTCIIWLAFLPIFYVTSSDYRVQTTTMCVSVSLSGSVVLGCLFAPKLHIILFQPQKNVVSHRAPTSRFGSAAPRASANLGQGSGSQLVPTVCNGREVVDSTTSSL

## C[C@H]1CN(c2ccc(C(F)(F)F)cc2)C(=O)c2c(-c3ccnc(N[11CH3])c3)cnn21 [[^11C]-2]
[1]
  Cortex WT (TB)/cortex WT (block Co. No. 1): ~6.7
  spec binding, cortex WT: (~85% spec
[2]
  Striatum WT (TB)/striatum WT (block Co. No. 1): ~8.3
  spec binding, striatum WT: (~88% spec
In words
  difference in tracer binding to WT and mGluR2 KO mouse brain sections: significant difference
Total binding ratio, WT versus mGluR2 KO mouse brain sections, cortex
  Cortex WT (TB)/Cortex KO (TB): ~8.1
Total binding ratio, WT versus mGluR2 KO mouse brain sections, striatum
  Striatum WT (TB)/Striatum KO (TB): ~4.8
